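Values below derive from 48-hour exposures of cells grown in 96-well plates, with endpoints linearly interpolated between the two concentrations bracketing the appropriate inhibition level. GI50: concentration for 50% inhibition of growth. Definition used: TGI = concentration required for complete inhibition of growth.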
Key:
Test in all cases: DTP human tumour cell line panel, 48 h
786-0 renal = system: 786-0 renal
A498 renal = system: A498 renal
A549 NSCLC = system: A549 NSCLC
ACHN renal = system: ACHN renal
BT-549 breast = system: BT-549 breast
CAKI-1 renal = system: CAKI-1 renal
CCRF-CEM leukemia = system: CCRF-CEM leukemia
COLO 205 colon = system: COLO 205 colon
DU-145 prostate = system: DU-145 prostate
EKVX NSCLC = system: EKVX NSCLC
HCC-2998 colon = system: HCC-2998 colon
HCT-116 colon = system: HCT-116 colon
HCT-15 colon = system: HCT-15 colon
HL-60(TB) leukemia = system: HL-60(TB) leukemia
HOP-62 NSCLC = system: HOP-62 NSCLC
HOP-92 NSCLC = system: HOP-92 NSCLC
HS 578T breast = system: HS 578T breast
HT29 colon = system: HT29 colon
IGROV1 ovarian = system: IGROV1 ovarian
K-562 leukemia = system: K-562 leukemia
KM12 colon = system: KM12 colon
LOX IMVI melanoma = system: LOX IMVI melanoma
M14 melanoma = system: M14 melanoma
MALME-3M melanoma = system: MALME-3M melanoma
MCF7 breast = system: MCF7 breast
MDA-MB-435 = system: MDA-MB-435
MDA-MB-468 breast = system: MDA-MB-468 breast
MOLT-4 leukemia = system: MOLT-4 leukemia

Which results are given for `O=C(Nc1ccc(I)cc1)Nc1nc2ccc([N+](=O)[O-])cc2s1`?
GI50 (786-0 renal): 3.5 µM; TGI (786-0 renal): 13.4 µM; GI50 (A498 renal): 2.83 µM; TGI (A498 renal): 9.14 µM; GI50 (A549 NSCLC): 3.54 µM; TGI (A549 NSCLC): 13.5 µM; GI50 (ACHN renal): 3.25 µM; TGI (ACHN renal): 10.4 µM; GI50 (BT-549 breast): 2.31 µM; TGI (BT-549 breast): 7.29 µM; GI50 (CAKI-1 renal): 3.32 µM; TGI (CAKI-1 renal): 12.1 µM; GI50 (CCRF-CEM leukemia): 3.4 µM; TGI (CCRF-CEM leukemia): 10.8 µM; GI50 (COLO 205 colon): 2.64 µM; TGI (COLO 205 colon): 6.52 µM; GI50 (DU-145 prostate): 3.99 µM; TGI (DU-145 prostate): 14 µM; GI50 (EKVX NSCLC): 3.08 µM; TGI (EKVX NSCLC): 10.9 µM; GI50 (HCC-2998 colon): 3.59 µM; TGI (HCC-2998 colon): 12.3 µM; GI50 (HCT-116 colon): 2.66 µM; TGI (HCT-116 colon): 11 µM; GI50 (HCT-15 colon): 3.2 µM; TGI (HCT-15 colon): 11.2 µM; GI50 (HL-60(TB) leukemia): 2.41 µM; TGI (HL-60(TB) leukemia): 6.05 µM; GI50 (HOP-62 NSCLC): 3.44 µM; TGI (HOP-62 NSCLC): 12.5 µM; GI50 (HOP-92 NSCLC): 2.03 µM; TGI (HOP-92 NSCLC): 6.28 µM; GI50 (HS 578T breast): 3.01 µM; TGI (HS 578T breast): 9.9 µM; GI50 (HT29 colon): 3.32 µM; TGI (HT29 colon): 13.4 µM; GI50 (IGROV1 ovarian): 3.67 µM; TGI (IGROV1 ovarian): 14 µM; GI50 (K-562 leukemia): 3.23 µM; TGI (K-562 leukemia): 10.9 µM; GI50 (KM12 colon): 3.36 µM; TGI (KM12 colon): 11.6 µM; GI50 (LOX IMVI melanoma): 3.49 µM; TGI (LOX IMVI melanoma): 11.7 µM; GI50 (M14 melanoma): 3.62 µM; TGI (M14 melanoma): 13.2 µM; GI50 (MALME-3M melanoma): 2.41 µM; TGI (MALME-3M melanoma): 6.89 µM; GI50 (MCF7 breast): 2.59 µM; TGI (MCF7 breast): 7.79 µM; GI50 (MDA-MB-435): 3.47 µM; TGI (MDA-MB-435): 12.5 µM; GI50 (MDA-MB-468 breast): 2.83 µM; TGI (MDA-MB-468 breast): 7.4 µM; GI50 (MOLT-4 leukemia): 2.57 µM

Source: PubChem BioAssay (NCI)
